Test results taken from US5968479A, “Diagnostic marker” (Daiichi Pure Chemicals Co., Ltd., priority 1995, dated 1999).

Columns and labels:
[1] = Fluorescence spectra of labeling compounds; assay type: physicochemical
Method: Compound 5 (40 mg, 64 μmol) in DMF (1 ml) was added with N-hydroxysuccinic anhydride (8.8 mg, 76 μmol) and N,N'-dicyclohexylcarbodiimide (DCC, 26.4 mg, 0.128 mmol) and the mixture was allowed to react at 4° C. overnight. Ether (10 ml) was added to the reaction mixture and the resulting residue was washed three times with ether. The solid mass was dissolved in chloroform (400 μl), and the solution was added with 0.1M aqueous hydrochloric acid (200 μl) and stirred. Then, the chloroform layer was separated and washed three times with water. The chloroform solution was concentrated under reduced pressure to obtain Compound 6 as black green solid (a labeling compound of the formula (III)) (38 mg, yield 78.5%). MS (FAB) m/e=720(M^+); Fluorescence spectra: λex =769 nm, λem =820 nm (10% DMSO in water).
Compound 5 (20 mg, 32 μmol) in DMF (1 ml) was added with sodium N-hydroxysuccinic anhydride sulfonate (8.3 mg, 38 μmol) and N,N'-dicyclohexylcarbodiimide (13.2 mg, 64 μmol), and the mixture was allowed to react at 4° C. overnight and then filtered. Ether (10 ml) was added to the filtrate and the resulting residue was washed three times with ether. The solid mass was dissolved in […] (400 μl), and the solution was added with 0.1M aqueous hydrochloric acid (200 μl) and stirred. Then, the chloroform layer was separated and washed three times with water. The chloroform solution was concentrated under reduced pressure to obtain Compound 7 as black green solid (labeling compound of the formula (III), 17 mg, yield 66.4%). MS (FAB) m/e=822 (M^+ Na); Fluorescence spectra λex =769 nm, λem =820 nm (10% DMSO in water).
Compound 5 (20 mg, 32 μmol) in DMF (0.5 ml) was added with N-(2-(N'-maleimide)ethyl)piperazine dihydrochloride (PEM, 4.4 mg, 38 μmol), triethylamine (TEA, 20 μl, 0.146 mmol) and DCC (10.2 mg, 49 μmol), and the mixture was allowed to react at 4° C. overnight. Ether (10 ml) was added to the reaction mixture and the resulting residue was washed three times with ether. The solid mass was dissolved in chloroform (400 μl), and the solution was added with 0.1M aqueous hydrochloric acid (200 μl) and stirred. Then, the chloroform layer was separated and washed three times with water. The chloroform solution was concentrated under reduced pressure to obtain Compound 8 as black green solid (labeling compound of the formula (III), 20 mg, yield 70.5%). MS (FAB) m/e=814(M^+); Fluorescence spectra λex =773 nm, λem =821 nm (10% DMSO in water).
Compound 6 (20 mg, 26.4 μmol) in DMF (0.5 ml) was added with hydrazine monohydrochloride (9.0 mg, 0.131 mmol) and the mixture was allowed to react overnight. The reaction mixture was filtered and the filtrate was concentrated under reduced pressure. The residue was dissolved in chloroform (0.5 ml) and the chloroform solution was washed with water three times. The chloroform layer was concentrated under reduced pressure to obtain Compound 9 as black green solid (16 mg, yield 90.0%). MS (FAB) m/e=637(M^+); Fluorescence spectra: λex =771 nm, λem =820 nm (10% DMSO in water).
Compound 12 (30 mg, 41.8 μmol) in a 50 v/v % aqueous solution of THF (1 ml) was added with sodium N-hydroxysuccinic anhydride-sulfonate (16.8 mg, 77.4 μmol) and N,N'-dicyclohexylcarbodiimide (25.8 mg, 0.125 mmol), and the mixture was allowed to react at 4° C. overnight and then filtered. The filtrate was concentrated under reduced pressure at a temperature of 20° C. or less. The residue was added with ethyl acetate (10 ml) and the deposited crystals were further washed with ether three times. These crystals were dissolved in water (200 μl) and purified using a Sephadex LH20 column (eluent: water) to obtain Compound 13 as black green solid (labeling compound of the formula (III), 34 mg, yield 88.8%). MS (FAB) m/e=892(M^-); Fluorescence spectrum λex =771 nm, λem =822 nm (water). […]

[2] = Water solubility of labeling compounds before (zwitterion type) and after (double salt type) salt formation; assay type: physicochemical; settings: for solubility: water, zwitterion type
Method: The above-obtained Compound 17 (100 mg, 0.11 mmol) was dissolved in methanol (2 ml) and the solution was added with a solution of sodium iodide (1 g, 6.7 mmol) in methanol (5 ml). The methanol solution was concentrated to a half of the volume and cooled to 4° C. overnight. The precipitated crystals were collected by filtration. The obtained green crystals were dried in a vacuum desiccator to give Compound 18 (labeling compound of the formula (V), 85 mg, yield 72%). Data of water-solubility and infrared absorption spectrum data (IR) were obtained before the formation of the salt with sodium iodide (zwitterion type) and after the salt formation. The iodide content was determined by the Schoniger method.
Indocyanine green-N-butanoic acid sulfosuccinimide ester (Compound 19) was prepared according to the method of Example 3. Compound 19 (150 mg, 0.17 mmol) was dissolved in methanol (3 ml) and the solution was added with a solution of sodium iodide (1.5 g, 10 mmol) in methanol (8 ml). The methanol was concentrated to a half of the volume and the concentrate was cooled to 4° C. overnight. The precipitated crystals were collected by filtration. The obtained green crystals were dried in a vacuum desiccator to give Compound 20 (labeling compound of the formula (V), 117 mg, yield 66%). Data of water-solubility and infrared absorption spectra data (IR) were obtained before and after the salt formation with sodium iodide. Iodine content was determined by the Schoniger method.
Indocyanine green-N-hexanoic acid sulfosuccinimide ester (Compound 21) was prepared according to the method of Example 3. Compound 21 (100 mg, 0.11 mmol) was dissolved in methanol (2 ml) and the solution was added with a solution of sodium perchlorate (0.3 g, 2.5 mmol) in methanol (20 ml). The methanol was concentrated to a quarter of the volume under reduced pressure and the concentrate was cooled to 4° C. overnight. The precipitated crystals were collected by filtration. The obtained green crystals were dried in a vacuum desiccator to give Compound 22 (labeling compound of the formula (V), 23 mg, yield 21%). Data of water-solubility and IR were obtained before and after the salt formation with sodium perchlorate.

| Fluorescence spectra λem ([1]; 10% DMSO in water) [nm] | Fluorescence spectra λex ([1]; 10% DMSO in water) [nm] | SMILES | also measured |
| --- | --- | --- | --- |
|  |  | CC1(C)C(=CC=CC=CC=CC2=[N+](CCCS(=O)(=O)[O-])c3ccc4ccccc4c3C2(C)C)N(CCCCCC(=O)ON2C(=O)CC(S(=O)(=O)O)C2=O)c2ccc3ccccc3c21 (stereo not shown) [Compound 13] | Fluorescence spectra λem ([1]; water): 822 nm; Fluorescence spectra λex ([1]; water): 771 nm |
|  |  | CC1(C)C(=CC=CC=CC=CC2=[N+](CCCCS(=O)(=O)[O-])c3ccc4ccccc4c3C2(C)C)N(CCCCCC(=O)ON2C(=O)CC(S(=O)(=O)O)C2=O)c2ccc3ccccc3c21 (stereo not shown) [Compound 22] | Water solubility ([2]; double salt type (sodium perchlorate)): 1 mg/5 ml |
| 820 | 769 | CC[N+]1=C(C=CC=CC=CC=C2N(CCCCCC(=O)ON3C(=O)CC(S(=O)(=O)O)C3=O)c3ccc4ccccc4c3C2(C)C)C(C)(C)c2c1ccc1ccccc21 (stereo not shown) [Compound 7] |  |
| 821 | 773 | CC[N+]1=C(C=CC=CC=CC=C2N(CCCCCC(=O)N3CCN(CCN4C(=O)C=CC4=O)CC3)c3ccc4ccccc4c3C2(C)C)C(C)(C)c2c1ccc1ccccc21 [Compound 8] |  |
|  |  | CC1(C)C(=CC=CC=CC=CC2=[N+](CCCCS(=O)(=O)[O-])c3ccc4ccccc4c3C2(C)C)N(CCCCCC(=O)ON2C(=O)CC(S(=O)(=O)O)C2=O)c2ccc3ccccc3c21 (stereo not shown) [Compound 21, Indocyanine green-N-hexanoic acid sulfosuccinimide ester] | solubility [2]: ≥ 100 µg/mL |
|  |  | CC1(C)C(=CC=CC=CC=CC2=[N+](CCCCS(=O)(=O)[O-])c3ccc4ccccc4c3C2(C)C)N(CCCCCC(=O)ON2C(=O)CC(S(=O)(=O)O)C2=O)c2ccc3ccccc3c21 (stereo not shown) [Compound 17, indocyanine green-N-hexanoic acid sulfosuccinimide ester] | Fluorescence spectra λem ([1]; water): 807 nm; Fluorescence spectra λex ([1]; water): 768 nm |
| 820 | 771 | CC[N+]1=C(C=CC=CC=CC=C2N(CCCCCC(=O)NN)c3ccc4ccccc4c3C2(C)C)C(C)(C)c2c1ccc1ccccc21 [Compound 9] |  |
| 820 | 769 | CC[N+]1=C(C=CC=CC=CC=C2N(CCCCCC(=O)ON3C(=O)CCC3=O)c3ccc4ccccc4c3C2(C)C)C(C)(C)c2c1ccc1ccccc21 [Compound 6] |  |
|  |  | CC1(C)C(=CC=CC=CC=CC2=[N+](CCCCS(=O)(=O)[O-])c3ccc4ccccc4c3C2(C)C)N(CCCC(=O)ON2C(=O)CC(S(=O)(=O)O)C2=O)c2ccc3ccccc3c21 (stereo not shown) [Compound 19, Indocyanine green-N-butanoic acid sulfosuccinimide ester] | solubility [2]: ≥ 100 µg/mL |
|  |  | CC1(C)C(=CC=CC=CC=CC2=[N+](CCCCS(=O)(=O)[O-])c3ccc4ccccc4c3C2(C)C)N(CCCCCC(=O)ON2C(=O)CC(S(=O)(=O)O)C2=O)c2ccc3ccccc3c21 (stereo not shown) [Compound 18] | Water solubility ([2]; double salt type (sodium iodide)): 1 mg/0.8 ml |
